Measurements reported in patent publication US5369016A, “Peptide amidase and the use thereof” (Forschungszentrum Juelich GmbH, priority 1990, dated 1994).
Square brackets hold non-standard residues; d marks the D form. Peptide text beside a SMILES is read from it.

Legend:
peptide amidase [1] = test: Continuous deamidation of H-Tyr-Arg-NH2 in an enzyme membrane reactor (EMR); assay type: biochemical, orange; settings: 20 mM substrate, residence time 30 minute, enzyme 0.15 mg/ml
Description: A continuous process for deamidation of H-Tyr-Arg-NH2 was carried out in an EMR. The conditions for operating the EMR (corresponding to a continuously operated stirred vessel reactor) permitted a more economic utilization of the enzyme because the enzyme was removed by ultrafiltration before the product was purified. The process was carried out under the following conditions: […]

[2] = tested on: peptide amidase purified from orange flavedo; test: Cleavage of peptide amides with free N termini and of side chain amides; assay type: biochemical; settings: amides of amino acid side chains (Asn; Gln); amino acid analyzer; 10000 µM
Description: Enzyme activity measured for the deamidation of dipeptide amides with free N termini (e.g. H-Tyr-Arg-NH2) was considerably higher than for peptide amides with an aromatic protective group, such as Z- or Bz-. Activity levels were up to 100 times higher than those measured with protected peptide amides.
Amides of amino acid side chains (Asn; Gln) Analysis
Eluent (HPLC): TBA/acetonitrile 95/5 or 96/4(*)
Reaction conditions: 10 mM substrate; 50 μg/ml peptide amidase; 50 mM
tris/HCl; pH 7.0; temperature 30° C.

peptide amidase [3] = test: Deamidation of tripeptides containing D-amino acids (stereospecificity); assay type: biochemical, orange; settings: 12 h
Description: Column: RP 18, 0.1 ml/min
Eluent: Solution of TBA (tetrabutylammonium hydrogen sulfate) and […]

peptide amidase [4] = test: Effect of organic solvents on enzyme stability; assay type: biochemical, orange; settings: 27.8% solvent, 30° C.; acetone, acetonitrile, DMF, ethanol compared
Description: Ten identical mixtures of the following composition:
50 μl of enzyme solution (40 μg of protein/mixture)
were incubated at 30° C. At various times, the reaction was initiated by the addition of substrate (Z-Gly-Tyr-NH2 in 100 μl of buffer/solvent 1:1, corresponding to 10 mM/mixture) and the activity was measured.

[5] = Comparison of the activity of peptide amidase and CPD-Y (pH-stat); assay type: biochemical; settings: for Amino-acid amidase activity (percent) / Amino-acid amidase activity (yes/no): strength varies depending on the amide of the amino acid
Description: The enzyme has neither peptidase activity nor amino acid amidase activity, as is evident from the results presented in Table 1 comparing the activities of a purified peptide amidase to carboxypeptidase Y in both its native and modified form.
Comparison of the activity of peptide amidase and CPD-Y;
Conditions for the determination of peptide amidase activity:
30 mM of different substrates, pH 9, 22° C., pH-stat
For the purposes of this disclosure, specific activity is defined as follows: 1 U/mg of enzyme can convert 1 μmol of substrate per minute.

N=C(N)NCCC[C@H](NC(=O)[C@@H](N)Cc1ccc(O)cc1)C(N)=O [Tyr--Arg--NH2, H-Tyr-Arg-NH2]
Mean conversion (peptide amidase [1]): 92%

H--Leu--Arg--Asn
Conversion [2]: 0%

NCC(=O)N[C@H](Cc1ccccc1)C(=O)N[C@@H](Cc1ccc(O)cc1)C(N)=O [H--Gly--D-Phe--Tyr--NH2] (H-Gly-[dF]-Tyr-NH2)
Conversion (peptide amidase [3]): 100 %/12 hours

NCC(=O)N[C@@H](Cc1ccccc1)C(=O)N[C@H](Cc1ccccc1)C(N)=O [H--Gly--Phe--D-Phe--NH2] (H-Gly-Phe-[dF]-NH2)
Conversion (peptide amidase [3]): 0 %/12 hours

H--Ala--Asn
Conversion [2]: 0%

C[C@@H](NC(=O)[C@@H]1CCCN1C(=O)[C@@H](N)CCCNC(=N)N)C(N)=O [H--Arg--Pro--D-Ala--NH2] (H-Arg-Pro-[dA]-NH2)
Conversion (peptide amidase [3]): 0 %/12 hours

CN(C)C=O [DMF, dimethylformamide]
decrease in enzyme activity on incubation with solvent (in words) (peptide amidase [4]): smallest decrease in enzyme activity

H--Ala--Gln
Conversion [2]: 0%

B1: Carboxypeptidase Y [CPD-Y (native)] (protein, UniProt P00729 112-532, looked up)
Carboxypeptidase Y: KIKDPKILGIDPNVTQYTGYLDVEDEDKHFFFWTFESRNDPAKDPVILWLNGGPGCSSLTGLFFELGPSSIGPDLKPIGNPYSWNSNATVIFLDQPVNVGFSYSGSSGVSNTVAAGKDVYNFLELFFDQFPEYVNKGQDFHIAGESYAGHYIPVFASEILSHKDRNFNLTSVLIGNGLTDPLTQYNYYEPMACGEGGEPSVLPSEECSAMEDSLERCLGLIESCYDSQSVWSCVPATIYCNNAQLAPYQRTGRNVYDIRKDCEGGNLCYPTLQDIDDYLNQDYVKEAVGAEVDHYESCNFDINRNFLFAGDWMKPYHTAVTDLLNQDLPILVYAGDKDFICNWLGNKAWTDVLPWKYDEEFASQKVRNWTASITDEVAGEVKSYKHFTYLRVFNGGHMVPFDVPENALSMVNEWIHGGFSL
Peptidase activity [5]: yes
Specific activity ([5]; 30 mM of different substrates, pH 9, 22° C., pH-stat): 0.0082 U/mg protein
Amino-acid amidase activity (percent) [5]: 0-92%
Amino-acid amidase activity (yes/no) [5]: yes

B2: Carboxypeptidase Y [CPD-Y (modified)] (protein, UniProt P00729 112-532, looked up)
Carboxypeptidase Y: B1 Carboxypeptidase Y
modifications: chemically modified
notes: carboxypeptidase Y in a chemically modified form
Amino-acid amidase activity (percent) [5]: 0-77%
Amino-acid amidase activity (yes/no) [5]: yes
